This passage reports Ki results from BindingDB's records for doi:10.1016/0014-2999(89)90802-9 (Virginia Commonwealth University, 1989).

One may read the Ki as a dissociation constant, usually derived from enzyme kinetics or from competition with a known ligand. The low end stands for tighter binding, the high end for weaker binding.

SMILES strings stand for the structures. A value given as a limit tells only on which side of the number the result lay.

Assay [1] has as its target T1, 5-hydroxytryptamine receptor 3A (Rattus norvegicus, UniProt P35563).
T1 sequence (P35563 whole entry): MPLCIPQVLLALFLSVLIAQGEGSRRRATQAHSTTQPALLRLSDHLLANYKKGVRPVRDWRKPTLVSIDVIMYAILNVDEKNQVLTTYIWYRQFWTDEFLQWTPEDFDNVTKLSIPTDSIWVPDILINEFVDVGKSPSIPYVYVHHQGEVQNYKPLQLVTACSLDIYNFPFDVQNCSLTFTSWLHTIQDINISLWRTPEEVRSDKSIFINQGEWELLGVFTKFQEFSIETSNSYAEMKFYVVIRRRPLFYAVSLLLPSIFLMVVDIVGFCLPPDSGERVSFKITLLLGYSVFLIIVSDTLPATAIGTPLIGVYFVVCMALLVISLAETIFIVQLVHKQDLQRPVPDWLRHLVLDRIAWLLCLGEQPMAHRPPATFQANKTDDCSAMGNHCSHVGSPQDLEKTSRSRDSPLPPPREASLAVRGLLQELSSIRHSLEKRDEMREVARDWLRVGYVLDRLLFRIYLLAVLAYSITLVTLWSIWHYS

Assay [2] deals with 5-hydroxytryptamine receptor 2A (Rattus norvegicus, UniProt P14842).
Chain of 5-hydroxytryptamine receptor 2A (P14842 whole entry): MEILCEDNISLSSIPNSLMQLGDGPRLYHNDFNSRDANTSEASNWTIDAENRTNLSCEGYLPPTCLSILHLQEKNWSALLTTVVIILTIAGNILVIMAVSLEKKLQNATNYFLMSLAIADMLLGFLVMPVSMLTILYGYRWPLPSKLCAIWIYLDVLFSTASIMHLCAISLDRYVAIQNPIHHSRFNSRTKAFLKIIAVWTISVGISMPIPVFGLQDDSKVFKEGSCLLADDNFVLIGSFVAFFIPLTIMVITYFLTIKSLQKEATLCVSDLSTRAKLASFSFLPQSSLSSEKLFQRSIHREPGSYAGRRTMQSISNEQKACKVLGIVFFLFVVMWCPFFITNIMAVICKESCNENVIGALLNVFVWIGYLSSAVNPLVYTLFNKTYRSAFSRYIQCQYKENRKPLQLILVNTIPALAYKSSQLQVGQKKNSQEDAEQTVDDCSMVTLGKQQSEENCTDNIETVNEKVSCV
The target in assay [3] is 5-hydroxytryptamine receptor 1B (Rattus norvegicus, UniProt P28564).
Chain of 5-hydroxytryptamine receptor 1B (P28564 whole entry): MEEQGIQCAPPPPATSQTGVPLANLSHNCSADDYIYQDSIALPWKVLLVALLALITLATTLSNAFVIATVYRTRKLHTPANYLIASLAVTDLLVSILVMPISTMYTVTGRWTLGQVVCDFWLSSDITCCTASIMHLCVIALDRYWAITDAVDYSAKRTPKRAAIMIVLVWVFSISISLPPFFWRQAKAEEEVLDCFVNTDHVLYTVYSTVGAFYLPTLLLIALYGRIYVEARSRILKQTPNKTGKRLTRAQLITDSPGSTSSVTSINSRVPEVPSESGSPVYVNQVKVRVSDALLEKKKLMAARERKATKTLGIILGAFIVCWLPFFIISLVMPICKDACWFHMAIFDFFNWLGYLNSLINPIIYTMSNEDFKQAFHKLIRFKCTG
Assay [4] concerns the target T2, Solute carrier family 22 member 1 (Rattus norvegicus, UniProt Q63089).
T2 sequence (Q63089 whole entry): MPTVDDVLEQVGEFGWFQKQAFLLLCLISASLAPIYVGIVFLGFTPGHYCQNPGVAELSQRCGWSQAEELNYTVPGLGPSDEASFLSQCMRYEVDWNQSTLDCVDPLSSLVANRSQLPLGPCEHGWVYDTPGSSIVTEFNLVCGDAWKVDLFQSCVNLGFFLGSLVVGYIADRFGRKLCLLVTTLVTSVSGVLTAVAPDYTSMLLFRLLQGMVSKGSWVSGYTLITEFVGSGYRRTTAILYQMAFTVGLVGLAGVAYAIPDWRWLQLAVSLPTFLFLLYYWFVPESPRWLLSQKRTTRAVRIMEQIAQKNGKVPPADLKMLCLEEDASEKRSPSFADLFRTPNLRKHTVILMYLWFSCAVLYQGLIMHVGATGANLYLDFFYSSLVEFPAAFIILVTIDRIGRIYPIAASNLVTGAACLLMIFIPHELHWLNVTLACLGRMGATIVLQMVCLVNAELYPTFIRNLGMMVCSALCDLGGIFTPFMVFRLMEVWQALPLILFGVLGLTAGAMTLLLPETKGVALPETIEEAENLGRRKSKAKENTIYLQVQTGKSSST

For assay [5], the target named is T3, Solute carrier family 22 member 2 (Rattus norvegicus, UniProt Q9R0W2).
T3 sequence (Q9R0W2 whole entry): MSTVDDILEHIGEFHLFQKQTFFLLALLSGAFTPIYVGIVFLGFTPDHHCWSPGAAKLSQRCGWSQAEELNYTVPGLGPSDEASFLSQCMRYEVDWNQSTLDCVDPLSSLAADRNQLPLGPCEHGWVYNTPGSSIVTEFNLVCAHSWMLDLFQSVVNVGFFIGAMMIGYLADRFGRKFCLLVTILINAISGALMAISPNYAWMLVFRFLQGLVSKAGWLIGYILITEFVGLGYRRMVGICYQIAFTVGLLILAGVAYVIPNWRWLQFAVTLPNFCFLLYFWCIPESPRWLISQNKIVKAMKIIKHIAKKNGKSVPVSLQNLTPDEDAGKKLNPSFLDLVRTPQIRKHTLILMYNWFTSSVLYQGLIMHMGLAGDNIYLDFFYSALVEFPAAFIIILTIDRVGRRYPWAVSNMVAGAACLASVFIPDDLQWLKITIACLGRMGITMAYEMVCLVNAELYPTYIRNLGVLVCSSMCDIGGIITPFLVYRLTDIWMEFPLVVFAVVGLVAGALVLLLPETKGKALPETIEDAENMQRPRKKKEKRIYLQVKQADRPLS

Assay [6] concerns the target T4, Muscarinic acetylcholine receptor M2 (Rattus norvegicus, UniProt P10980).
T4 sequence (P10980 whole entry): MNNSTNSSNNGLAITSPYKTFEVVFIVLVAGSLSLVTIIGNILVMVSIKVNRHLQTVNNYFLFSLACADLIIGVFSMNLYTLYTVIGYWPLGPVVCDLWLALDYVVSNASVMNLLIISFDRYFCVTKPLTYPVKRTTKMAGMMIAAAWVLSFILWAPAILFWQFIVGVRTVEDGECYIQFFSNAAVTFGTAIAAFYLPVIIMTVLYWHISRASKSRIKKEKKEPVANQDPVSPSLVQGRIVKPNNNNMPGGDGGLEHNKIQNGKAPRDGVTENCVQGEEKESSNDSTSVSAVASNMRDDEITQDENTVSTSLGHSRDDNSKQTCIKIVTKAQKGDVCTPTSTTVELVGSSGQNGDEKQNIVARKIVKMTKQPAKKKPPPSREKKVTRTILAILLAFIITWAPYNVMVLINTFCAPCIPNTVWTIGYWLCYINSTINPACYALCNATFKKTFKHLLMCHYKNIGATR

Assay [7] has as its target Beta-2 adrenergic receptor (Rattus norvegicus, UniProt P10608).
Assay [8] has as its target T5, 5-hydroxytryptamine receptor 1A (Rattus norvegicus, UniProt P19327).
T5 sequence (P19327 whole entry): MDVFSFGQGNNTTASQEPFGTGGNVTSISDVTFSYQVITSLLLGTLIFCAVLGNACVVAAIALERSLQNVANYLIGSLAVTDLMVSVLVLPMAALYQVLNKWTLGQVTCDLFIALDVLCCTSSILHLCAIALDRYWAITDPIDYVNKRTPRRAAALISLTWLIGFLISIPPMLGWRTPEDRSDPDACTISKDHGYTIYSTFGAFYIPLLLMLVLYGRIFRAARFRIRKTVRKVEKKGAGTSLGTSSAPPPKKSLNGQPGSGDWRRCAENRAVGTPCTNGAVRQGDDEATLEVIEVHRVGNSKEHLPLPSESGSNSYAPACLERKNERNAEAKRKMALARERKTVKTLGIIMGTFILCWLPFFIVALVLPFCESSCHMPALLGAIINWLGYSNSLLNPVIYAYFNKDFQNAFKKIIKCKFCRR

Assay [9] deals with T6, Alpha-1A adrenergic receptor (Rattus norvegicus, UniProt P43140).
T6 sequence (P43140 whole entry): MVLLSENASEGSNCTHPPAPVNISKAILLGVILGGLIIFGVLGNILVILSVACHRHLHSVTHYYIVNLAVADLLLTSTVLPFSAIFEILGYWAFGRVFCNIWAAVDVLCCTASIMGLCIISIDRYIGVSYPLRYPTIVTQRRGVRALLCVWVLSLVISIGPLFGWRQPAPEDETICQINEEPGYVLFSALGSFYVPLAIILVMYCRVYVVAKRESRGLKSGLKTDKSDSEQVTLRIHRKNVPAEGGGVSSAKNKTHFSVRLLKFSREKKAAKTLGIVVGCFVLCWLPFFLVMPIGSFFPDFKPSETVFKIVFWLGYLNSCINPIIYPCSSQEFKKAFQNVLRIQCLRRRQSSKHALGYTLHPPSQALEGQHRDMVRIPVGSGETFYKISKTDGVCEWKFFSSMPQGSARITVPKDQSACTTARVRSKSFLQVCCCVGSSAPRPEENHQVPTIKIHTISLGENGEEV

Assay [10] concerns the target Gamma-aminobutyric acid receptor subunit alpha-1 (Rattus norvegicus, UniProt P62813).
The target in assay [11] is T7, Alpha-2C adrenergic receptor (Rattus norvegicus, UniProt P22086).
T7 sequence (P22086 whole entry): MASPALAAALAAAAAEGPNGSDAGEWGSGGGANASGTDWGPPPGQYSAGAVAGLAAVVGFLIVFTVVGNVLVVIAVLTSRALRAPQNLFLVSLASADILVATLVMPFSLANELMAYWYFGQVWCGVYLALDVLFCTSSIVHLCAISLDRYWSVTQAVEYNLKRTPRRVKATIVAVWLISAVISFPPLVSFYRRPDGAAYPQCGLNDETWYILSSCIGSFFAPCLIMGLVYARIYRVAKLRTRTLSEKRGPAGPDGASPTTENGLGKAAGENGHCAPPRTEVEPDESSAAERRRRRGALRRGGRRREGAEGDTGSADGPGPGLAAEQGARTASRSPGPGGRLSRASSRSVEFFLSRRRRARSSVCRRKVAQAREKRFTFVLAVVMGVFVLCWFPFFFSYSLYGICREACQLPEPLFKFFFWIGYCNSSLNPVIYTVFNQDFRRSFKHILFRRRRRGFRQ

Chain of Beta-2 adrenergic receptor (P10608 whole entry): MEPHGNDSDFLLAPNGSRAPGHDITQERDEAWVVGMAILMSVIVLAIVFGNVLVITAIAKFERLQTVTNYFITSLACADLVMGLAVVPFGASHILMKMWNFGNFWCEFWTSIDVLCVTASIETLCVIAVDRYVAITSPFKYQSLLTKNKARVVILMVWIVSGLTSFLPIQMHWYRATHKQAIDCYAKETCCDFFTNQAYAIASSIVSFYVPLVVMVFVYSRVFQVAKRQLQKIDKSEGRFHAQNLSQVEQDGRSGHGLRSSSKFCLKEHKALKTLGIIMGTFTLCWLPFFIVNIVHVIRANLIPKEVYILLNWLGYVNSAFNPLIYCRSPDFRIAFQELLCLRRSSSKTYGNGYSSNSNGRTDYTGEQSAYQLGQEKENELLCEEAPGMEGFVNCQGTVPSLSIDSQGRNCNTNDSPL
Chain of Gamma-aminobutyric acid receptor subunit alpha-1 (P62813 whole entry): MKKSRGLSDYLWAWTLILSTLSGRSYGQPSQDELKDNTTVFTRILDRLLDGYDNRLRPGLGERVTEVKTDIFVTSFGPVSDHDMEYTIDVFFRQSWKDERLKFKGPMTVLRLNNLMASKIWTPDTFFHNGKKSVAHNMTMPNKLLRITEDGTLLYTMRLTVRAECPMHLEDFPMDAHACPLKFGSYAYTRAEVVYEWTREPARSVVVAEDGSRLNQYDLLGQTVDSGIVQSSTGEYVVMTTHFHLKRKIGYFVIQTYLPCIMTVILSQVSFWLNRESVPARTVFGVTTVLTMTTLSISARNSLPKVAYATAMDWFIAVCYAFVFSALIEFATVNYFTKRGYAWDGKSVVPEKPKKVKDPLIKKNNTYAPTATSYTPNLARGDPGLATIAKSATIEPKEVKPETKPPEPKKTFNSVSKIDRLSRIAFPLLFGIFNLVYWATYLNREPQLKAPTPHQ

Take `COc1ccccc1N1CCNCC1`: the Ki in assay [1] is 324 nM. Turning to `Clc1ccc(N2CCNCC2)cc1`, the Ki in assay [1] is 120 nM. Consider `c1ccc(N2CCNCC2)cc1`, for which the inhibitory constant (Ki) in assay [1] worked out at 430 nM. In the case of `c1ccc2c(N3CCNCC3)cccc2c1`, the Ki in assay [1] was 110 nM. The same measure, in the same setting: in the case of `c1ccc(C2CCNCC2)cc1` it was 440 nM; in that of `COc1cccc2ccc(N3CCNCC3)nc12`, 360 nM; in that of `CCCN(CCC)c1ccc2ccccc2n1`, 1000 nM. In the case of `c1ccc2nc(N3CCCCC3)ccc2c1`, the Ki in assay [1] is 1000 nM.

For the compound `c1cnc(N2CCNCC2)nc1` [1-PP], the Ki in [1] amounted to 4000 nM.

With `c1ccc2nc(N3CCNCC3)ccc2c1` [2-Piperazin-1-yl-quinoline (Quipazine)], the Ki is 180 nM in assay [2]; 200 nM in [3]; 1.5 nM in assay [1]; greater than 10000 nM in assay [4]; 5000 nM in [5]; greater than 10000 nM in [6]. Also, the affinity in assay [7] corresponds to a Ki of 2900 nM. `COc1ccc(N2CCNCC2)cc1` [4-METHOXYPHENYLPIPERAZINE] had a Ki in [1] of 340 nM. The compound `COc1cccc2ccc(N3CCN(C)CC3)nc12` [8-Methoxy-N-methylquipazine] yielded a Ki in assay [1] of 440 nM. In the case of `Clc1cncc(N2CCNCC2)n1` [L-630,571], the affinity in assay [1] corresponds to a Ki of 29 nM. In turn, `CCCN1CCN(c2ccc3ccccc3n2)CC1` [N-Propylquipazine] returned a Ki in assay [1] of 15 nM. As for `CN(C)C[C@@H]1C2CCC(CC2)[C@@H]1c1ccc(Cl)c(Cl)c1` [NSC_398], the Ki in assay [1] was 30 nM. The same measure, in the same setting: in the case of `CN1CCN(c2nc3ccccc3c(=O)[nH]2)CC1` [NSC_63211] it was 270 nM. In the case of `Cc1cccc2ccc(N3CCNCC3)nc12` [QUIPAZINE,8-Me], the inhibition constant Ki in assay [2] was 550 nM; in [8], 1700 nM; in assay [3], greater than 10000 nM; in assay [9], greater than 10000 nM; in assay [10] it was greater than 10000 nM; in assay [1] it was 4.7 nM. Besides, the Ki in assay [11] is 3800 nM; in assay [6] it was greater than 10000 nM; in assay [7], greater than 10000 nM. On to `Clc1cccc(N2CCNCC2)c1` [mCPP], for which, in assay [1], the Ki was 20 nM.
